Biological target: T1, Substance-K receptor (Homo sapiens, UniProt P21452)
T1 sequence (P21452 whole entry): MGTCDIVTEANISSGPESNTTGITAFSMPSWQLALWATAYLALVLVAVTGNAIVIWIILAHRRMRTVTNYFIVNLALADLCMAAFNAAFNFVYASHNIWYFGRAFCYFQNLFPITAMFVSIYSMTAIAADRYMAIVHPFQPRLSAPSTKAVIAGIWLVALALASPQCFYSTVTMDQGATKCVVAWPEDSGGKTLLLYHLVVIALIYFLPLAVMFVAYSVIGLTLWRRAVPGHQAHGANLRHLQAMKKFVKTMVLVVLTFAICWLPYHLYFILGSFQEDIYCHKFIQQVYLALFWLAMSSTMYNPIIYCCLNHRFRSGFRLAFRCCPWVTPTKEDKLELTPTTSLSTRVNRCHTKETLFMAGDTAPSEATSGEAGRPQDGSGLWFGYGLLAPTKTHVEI
Experiment: Binding affinity was determined against human NK2 receptor in CHO cells using [125I]neurokinin A as radioligand
Type: cell-based

| IC50 [nM] | Compound |
| --- | --- |
| 6.7 | CN(CC(CCN1CCC(O)(c2ccccc2)CC1)c1ccc(Cl)c(Cl)c1)C(=O)c1cccc(C2(C(F)(F)F)N=N2)c1 (racemic) |
| 0.8 | CC(=O)NC1(c2ccccc2)CCN(CC[C@H](CN(C)C(=O)c2ccccc2)c2ccc(Cl)c(Cl)c2)CC1 (racemic) [SAREDUTANT] |

— ChEMBL document CHEMBL1128992, “A Non-peptidic photoactivatable antagonist for mapping the antagonist binding site of the tachykinin NK2 receptor” (Bioorg Med Chem Lett, 1996)
